According to patent US20070167631A1, “Novel herbicides” (priority 2003, published 2007):

What was measured:
Format in all cases: in vivo
[1] = test system: Amaranthus; assay: Microscreen, post-emergence herbicidal action (Example B3); conditions: 250 g/ha, evaluated after 9 or 13 days, scale of eleven ratings (10=total damage, 0=no action)
Experimental: (§1) Example B3 Microscreen, Post-Emergence Herbicidal Action Monocotyledonous and dicotyledonous test plants are sown in sterilised standard soil in seed trays each having 96 cells. […] The plants are grown on in the climatic chamber until the test is evaluated after 9 or 13 days. The test is evaluated in accordance with a scale of eleven ratings (10=total damage, 0=no action). Ratings of from 10 to 7 (especially from 10 to 8) indicate very good to good herbicidal action.

[2] = test system: Solanum; assay: as above; conditions: 250 g/ha, evaluated after 9 or 13 days, scale of eleven ratings (10=total damage, 0=no action)
Experimental: as §1

[3] = test system: Nasturtium; assay: as above; conditions: 250 g/ha, evaluated after 9 or 13 days, scale of eleven ratings (10=total damage, 0=no action)
Experimental: as §1

[4] = test system: Stellaria; assay: as above; conditions: 250 g/ha, evaluated after 9 or 13 days, scale of eleven ratings (10=total damage, 0=no action)
Experimental: (§2) Example B3 Microscreen, Post-Emergence Herbicidal Action Monocotyledonous and dicotyledonous test plants are sown in sterilised standard soil in seed trays each having 96 cells. After 8 to 9 days' cultivation under controlled conditions in a climatic chamber (cultivation at 17/23° C.; 13 hours' light; 50-60% humidity; after application at 19/24° C.), the plants are treated with an aqueous spray solution of 1000 mg/l of the active ingredient used ([…]; incl. 10% DMSO as solvent). The plants are grown on in the climatic chamber until the test is evaluated after 9 or 13 days. The test is evaluated in accordance with a scale of eleven ratings (10=total damage, 0=no action). Ratings of from 10 to 7 (especially from 10 to 8) indicate very good to good herbicidal action.

[5] = test system: Digitaria; assay: as above; conditions: 250 g/ha, evaluated after 9 or 13 days, scale of eleven ratings (10=total damage, 0=no action)
Experimental: as §2

[6] = test system: Euphorbia; assay: Post-emergence herbicidal action (Example B2); conditions: 250 g/ha, after about 18 days, rating scale 10=total damage, 0=no action
Excerpt: (§3) Monocotyledonous and dicotyledonous test plants are cultivated in a greenhouse in standard soil in plastic pots and, at the 4- to 6-leaf stage, are sprayed with an aqueous suspension of the test compounds of formula I prepared from a 25% wettable powder (Example F3, b) according to WO 97/34485) or with an emulsion of the test compounds of formula I prepared from a 25% emulsifiable concentrate (Example F1, c) according to WO 97/34485), corresponding to concentrations of 125 and 250 g of active ingredient per hectare (500 litres of water per ha). The test plants are then grown on in the greenhouse under optimum conditions. After a test duration of about 18 days, the test is evaluated in accordance with a scale of eleven ratings (10=total damage, 0=no action). Ratings of from 10 to 7 (especially from 10 to 8) indicate very good to good herbicidal action.

[7] = test system: Amaranthus; assay: Post-emergence herbicidal action (Example B2); conditions: 250 g/ha, after about 18 days, rating scale 10=total damage, 0=no action
Excerpt: as §3

[8] = test system: Stellaria; assay: Post-emergence herbicidal action (Example B2); conditions: 250 g/ha, after about 18 days, rating scale 10=total damage, 0=no action
Excerpt: as §3

[9] = test system: Chenopodium; assay: Post-emergence herbicidal action (Example B2); conditions: 250 g/ha, after about 18 days, rating scale 10=total damage, 0=no action
Excerpt: as §3

[10] = test system: Panicum; assay: Post-emergence herbicidal action (Example B2); conditions: 250 g/ha, after about 18 days, rating scale 10=total damage, 0=no action
Excerpt: as §3

[11] = test system: Echinochloa; assay: Post-emergence herbicidal action (Example B2); conditions: 250 g/ha, after about 18 days, rating scale 10=total damage, 0=no action
Excerpt: as §3

[12] = test system: Xanthium; assay: Post-emergence herbicidal action (Example B2); conditions: 250 g/ha, after about 18 days, rating scale 10=total damage, 0=no action
Excerpt: as §3

SMILES	Amaranthus, herbicidal action rating [1]	Solanum, herbicidal action rating [2]	Nasturtium, herbicidal action rating [3]	Stellaria, herbicidal action rating [4]	Digitaria, herbicidal action rating [5]	Post-emergence action: Euphorbia [6]	Post-emergence action: Amaranthus [7]	Post-emergence action: Stellaria [8]	Post-emergence action: Chenopodium [9]	Post-emergence action: Panicum [10]	Post-emergence action: Echinochloa [11]	Post-emergence action: Xanthium [12]
CN(C)c1nc(C(=O)C2=C(O)CCCC2=O)ccc1C(F)(F)F [Compound 1.059]	7	9	9	9	7	–	–	–	–	–	–	–
CCN(CC)c1nc(C(=O)C2=C(O)CCCC2=O)ccc1C(F)(F)F [Compound 1.060]	8	8	9	7	4	–	–	–	–	–	–	–
O=C1CCCC(O)=C1C(=O)c1ccc(C(F)(F)F)c(-n2cccn2)n1 [Compound 1.080]	7	9	10	9	5	–	–	–	–	–	–	–
O=C1CCCC(O)=C1C(=O)c1ccc(C(F)(F)F)c(-n2cncn2)n1 [Compound 1.082]	6	9	10	10	3	–	–	–	–	–	–	–
CN(C(=O)c1ccccc1)c1nc(C(=O)C2=C(O)CCCC2=O)ccc1C(F)(F)F [Compound 1.091]	8	9	9	6	2	–	–	–	–	–	–	–
O=C1CCCC(O)=C1C(=O)c1ccc(OCC(F)(F)F)c(N2CCOCC2)n1 [Compound 1.094]	9	10	8	7	8	–	–	–	–	–	–	–
C=C(OCC)c1nc(C(=O)C2=C(O)CCCC2=O)ccc1C(F)(F)F [Compound 1.189]	–	9	9	8	7	–	–	–	–	–	–	–
CC1(c2nc(C(=O)C3=C(O)CCCC3=O)ccc2C(F)(F)F)OCCO1 [Compound 1.192]	8	9	10	9	7	–	–	–	–	–	–	–
Cc1cc(-c2nc(C(=O)C3=C(O)CCCC3=O)ccc2C(F)(F)F)on1 [Compound 1.204]	10	10	10	10	8	–	–	–	–	–	–	–
O=C1CCCC(O)=C1C(=O)c1ccc(C(F)(F)F)c(-c2ccc(C(F)(F)F)cc2)n1 [Compound 1.209]	9	9	9	9	8	–	–	–	–	–	–	–
Cc1nc(C(=O)C2=C(O)CCCC2=O)ccc1C(F)(F)F [Compound 1.211]	8	8	10	8	5	–	–	–	–	–	–	–
N#Cc1nc(C(=O)C2=C(O)CCCC2=O)ccc1C(F)(F)F [Compound 1.212]	7	8	8	7	3	–	–	–	–	–	–	–
CC(C)=NOCCOc1nc(C(=O)C2=C(O)C(C)(C)C(=O)C(C)(C)C2=O)ccc1C(F)(F)F [Compound 2.010]	8	9	9	8	3	–	–	–	–	–	–	–
CCN(CC)c1nc(C(=O)C2=C(O)C(C)(C)C(=O)C(C)(C)C2=O)ccc1C(F)(F)F [Compound 2.060]	9	10	10	10	9	–	–	–	–	–	–	–
COCCNc1nc(C(=O)C2=C(O)C(C)(C)C(=O)C(C)(C)C2=O)ccc1C(F)(F)F [Compound 2.064]	8	10	10	10	9	–	–	–	–	–	–	–
CC1CN(c2nc(C(=O)C3=C(O)C(C)(C)C(=O)C(C)(C)C3=O)ccc2C(F)(F)F)CC(C)O1 (stereo not shown) [Compound 2.075]	6	10	10	9	7	–	–	–	–	–	–	–
CN(C(=O)c1ccccc1)c1nc(C(=O)C2=C(O)C(C)(C)C(=O)C(C)(C)C2=O)ccc1C(F)(F)F [Compound 2.090]	6	10	10	8	2	–	–	–	–	–	–	–
Cc1cc(-c2nc(C(=O)C3=C(O)C(C)(C)C(=O)C(C)(C)C3=O)ccc2C(F)(F)F)on1 [Compound 2.202]	6	10	10	10	6	–	–	–	–	–	–	–
CC1(C)C(=O)C(C(=O)c2ccc(C(F)(F)F)c(C#N)n2)=C(O)C(C)(C)C1=O [Compound 2.208]	–	–	–	–	–	8	8	5	6	9	9	8
O=C1CCC2(CC2)C(O)=C1C(=O)c1ccc(C(F)(F)F)c(N2CCOCC2)n1 [Compound 3.068]	–	–	–	–	–	9	10	9	9	10	9	9
CC1(C)CC(C)(C)C(O)=C(C(=O)c2ccc(C(F)(F)F)c(N3CCOCC3)n2)C1=O [Compound 3.075]	–	–	–	–	–	7	2	8	9	5	7	8
CC1(C)OC(C)(C)C(O)=C(C(=O)c2ccc(C(F)(F)F)c(N3CCOCC3)n2)C1=O [Compound 3.076]	–	–	–	–	–	6	7	7	9	7	7	8
N#CC1CC(=O)C(C(=O)c2ccc(C(F)(F)F)c(N3CCOCC3)n2)=C(O)C1 (stereo not shown) [Compound 3.212]	–	–	–	–	–	7	8	7	7	0	5	8
